Results as given in patent publication US12569470B2, “Vasodilator and use thereof” (Bioradical Research Institute Corp., priority 2019, dated 2026).

Key:
Assay type in all cases: cell-based
rat neuroid cells B50 [1] = test: Toxicity evaluation on byproducts after reaction with singlet oxygen; settings: byproducts after reaction with singlet oxygen, 50, 100, or 200 μmol/1, FIG. 6
Method: In a cell-free system, the RB was added to media (5% FCS-containing RPMI-1640 media) containing edaravone, ED2AP, and BisEp-C3 having a predetermined concentration (50, 100, or 200 μmol/1) and then irradiated with LED (G-LED) at 525 nm to generate singlet oxygen, whereby reacting each compound with singlet oxygen. The cell viability was measured in the same manner as in Example 7(1), except that the culture solution after the reaction was used as a medium of the neuroid cell B50. As a negative control (NC), the cell viability was measured in the same manner except that each compound and […] were not added in the cell-free system. Further, as a control (RB), the cell viability was measured in the same manner except that each compound was not added and only […] was added in the cell-free system.

rat neuroid cells B50 [2] = test: Cytoprotection against singlet oxygen (Rose Bengal + G-LED), Alamar Blue fluorescence; settings: 0, 12.5, 25, 50, or 100 μmol/1, RB 200 nmol/1 + G-LED 5 minutes, negative control being 100, FIG. 3
Method: Edaravone, ED2AP and BisEp-C3 were examined for whether they had the function of alleviating neuronopathy. Specifically, singlet oxygen was generated by combining Rose Bengal (RB), which is a sensitizer, with green light (G-LED), and the function of alleviating the cytotoxicity of the generated singlet oxygen was examined with the cellular activity being an indicator.
First, rat neuroid cells B50 were cultured in 12-well dishes at 2×10^5 cells/well (medium: RPMI-1640 medium containing 5% FCS) overnight. After the culturing, the medium of each well was replaced with HBSS (1,000 μl/well; phenol red-free Ca+, Mg+) containing 200 nmol/1 RB and edaravone, ED2AP, or BisEp-C3 having a predetermined concentration (0, 12.5, 25, 50, or 100 μmol/1). The dish was then irradiated with G-LED for 5 minutes to generate singlet oxygen. Thereafter, the medium of each well was replaced with 1,000 μl of HBSS, and Alamar Blue was added. The dish was then allowed to react for about 2 hours in an incubator at 37° C. and 5%CO2. After the reaction, fluorescence intensity (excitation wavelength: λ- 560 nm, fluorescence wavelength: λ-595 nm) was measured with a plate reader (infinite200, Tecan Trading AG). In this experimental system, the higher the cellular activity, the more Alamar Blue is taken up and the higher the fluorescence intensity. As a control, fluorescence intensity was measured in the same manner except that sodium azide (Azide, NaN3) was added instead of the compounds so as to achieve a concentration of 4 mmol/1. As a negative control (NC), fluorescence intensity was measured in the same manner except that RB was not added. The relative value of the fluorescence intensity in the sample to which each compound was added was calculated with the fluorescence intensity of the negative control being 100.

rat neuroid cells B50 [3] = test: Toxicity evaluation, cell viability by Alamar Blue; settings: 12.5, 25, 50, 100, or 200 μmol/1, 24 hours, FIG. 5
Method: Rat neuroid cells B50 were seeded in 12-well plates and then cultured. Edaravone (RC), ED2AP, or BisEp-C3 was added to each well so as to achieve a predetermined concentration (12.5, 25, 50, 100, or 200 μmol/1), and then incubated for 24 hours at 37° C. and 5% CO2. Cell viability in each well after the culture was measured using Alamar Blue.

CC1=NN(c2ccccc2)C(=O)C1 [Edaravone, 3-methyl-1-phenyl-5-pyrazolone, reference compound]
cell viability (cytotoxicity of byproducts) (rat neuroid cells B50 [1]): not cytotoxic at any concentration
relative value of the fluorescence intensity (rat neuroid cells B50 [2]): not recovered
cell viability (cytotoxicity) (rat neuroid cells B50 [3]): not cytotoxic at any concentration
